US20100055218A1, “NOVEL COMPOSITIONS” (priority 2006, published 2010)

Experiments:
RAW267.7 [1] = assay: Inhibition of PGE2 production in LPS-activated macrophages (EIA); assay type: cell-based, murine; details: Mus musculus, Macrophage; for IC50: read-out: IC50 PGE2
Procedure: (§1) The anti-inflammatory effects of rosehip and ligustilide, hydroxytyrosol, magnolol, and genistein were evaluated in activated macrophages by determining the inhibition of the synthesis of nitric oxide and/or proinflammatory prostaglandins (PG). PGE2 plays a critical role in the inflammation process, while nitric oxide (NO) is a hallmark of inflammation in various chronic inflammatory diseases including various forms of arthritis, gastro-intestinal diseases and metabolic syndrome.
(§2) Biologically standardized rosehip powder was obtained from Hyben Vital International, Langeland, Denmark, and dissolved in DMSO. Ligustilide and genistein was synthesized by DSM Nutritional Products. Hydroxytyrosol was from Cayman Chemicals or synthesized by DSM Nutritional Products. Magnolol was obtained from Apin Chemicals Ltd, UK. According to the suppliers' data sheet all products were >90% pure and obtained in powder form. […] The anti-inflammatory effects of compounds was tested in cellular assays using a murine macrophage indicator cell line, RAW267.7, which was purchased from American Type Culture Collection, (ATCC) and cultured in DMEM according to the protocol provided by ATCC. Cells (˜50'000/well) were seeded into flat-bottomed microtiter plates and cultured for one day. Cells were then starved in complete medium containing 0.25% fetal calf serum (FCS) (D-025). After overnight culture, medium was removed and replaced by 100 μL of D-025 containing the test compounds at twice the final concentration. Subsequently, 100 μL of D-025 containing 2 μg/ml lipopolysaccharide (LPS) was added (i.e. final LPS concentration of 1 μg/ml) and the cells were cultured for 24 hours. Substances were usually tested in a concentration range from 0.2 to 50 μM in two-fold dilution steps. In the case of rosehip extract, the concentration range was from 3-2000 μg/ml. Concentrations of nitrite which was generated from nitric oxide released by cells were determined by the Griess reaction (see e.g Imai et al. Biochem Biophys Res Comm, 197, 105 [1993]) using sodium nitrite as standard. Briefly, 50 μl of supernatant was mixed with Griess reagent 1 (25 μL) and Griess reagent 2 (25 μL), centrifuged and the optical density at 540 nm determined. PGE2 secreted into the cell culture medium was determined by EIA obtained from Cayman Chemicals (Ann Harbor, Wis., USA) and used according to the manufacturer's instructions. IC50 values were calculated using a […] least-square fitting equation [y=A+((B−A)/(1+((C−x)̂D))] for best-fit curves (Excel fit software program).

RAW267.7 [2] = assay: Inhibition of nitric oxide production in LPS-activated macrophages (nitrite, Griess reaction); assay type: cell-based, murine; details: Mus musculus, Macrophage; for IC50: read-out: IC50 Nitric Oxide
Procedure: as §1, §2

[3] = single substance, LPS 1 μg/ml, 24 hours
[4] = 6.25 μmol/L, read-out: % inhibition of NO production

O=c1c(-c2ccc(O)cc2)coc2cc(O)cc(O)c12 [Genistein, 4′,5,7-trihydroxyisoflavone]
IC50 (RAW267.7 [1]; [3]): 5 ± 1 µM | inhibition at 25 µM (RAW267.7 [2]; 25 μmol/L, read-out: % inhibition of NO production): 24% | IC50 (RAW267.7 [2]; [3]): 37 ± 2 µM

CCC/C=C1\OC(=O)C2=C1CCC=C2 [Ligustilide, ligustilide]
IC50 (RAW267.7 [1]; [3]): 10 ± 2 µM | inhibition at 6.25 µM (RAW267.7 [2]; [4]): 5% | IC50 (RAW267.7 [2]; [3]): 15 ± 1 µM

C=CCc1ccc(O)c(-c2cc(CC=C)ccc2O)c1 [Magnolol, 5,5′-Diallyl-2,2′-biphenyldiol]
IC50 (RAW267.7 [1]; 24 h): 2 ± 1 µM | inhibition at 6.25 µM (RAW267.7 [1]; read-out: % inhibition of PGE2 production): 57% | IC50 (RAW267.7 [2]; 24 h): 10 ± 2 µM | inhibition at 6.25 µM (RAW267.7 [2]; read-out: % inhibition of NO production): 2%

OCCc1ccc(O)c(O)c1 [OH-Tyrosol, 3,4 dihydroxyphenylethanol]
IC50 (RAW267.7 [1]; [3]): 24 ± 3 µM | inhibition at 6.25 µM (RAW267.7 [2]; [4]): -5% | inhibition at 12.5 µM (RAW267.7 [2]; 12.5 μmol/L, read-out: % inhibition of NO production): 9% | IC50 (RAW267.7 [2]; [3]): 28 ± 2 µM
